US6403554B2, “Polyunsaturated fatty acid derivatives and their use” (Ardenia Investments Ltd., priority 1998, dated 2002)

System: antibody-forming cells (AFC) in the spleen
Experiment: Influence of compound on humoral immune response to sheep erythrocytes, C57B1/6 female mice (AFC in spleen, hemagglutinins)
Format: in vivo
Conditions: for Amount of antibody-forming cells per 10^6 spleen cells / Amount of antibody-forming cells per spleen / Effect on relative amount of AFC (per 10^6 spleen cells) / Effect on total AFC amount (per spleen): 5th day; for Amount of antibody-forming cells per 10^6 spleen cells / Amount of antibody-forming cells per spleen: M ± SEM; for Effect on relative amount of AFC (per 10^6 spleen cells) / Effect on total AFC amount (per spleen) / Effect on hemagglutinin titers: vs control; for Spleen index: with SRBC i.p.
Procedure: The increase was calculated as compared with the amount of cells in the animals immunised only with sheep erythrocytes.
0.15 ml of compound 10 was administered intravenously to 6 mice females of CS7B1/6 line (weight 18-22 g) in doses of 45.5, 91 and 136.5 μg of compound 10 per capita for each testing group according to the dose. Simultaneously, a suspension of 5·10^7 sheep erythrocytes was injected intraperitoneally (0.2 ml per capita). Mice in the control group were injected intravenously with equal volume of saline. The effects of compound 10 on humoral immune response were analyzed both by counting the quantity of AFC in the spleen according to Cunningham (per 10^6 spleen cells and per spleen) and estimating the titers of hemagglutining antibodies in serum of the animals (Cunningham A. J., Nature, 1965, Vol.207, No 5001. P.1106-1107), while the titers of hemagglutinating antibodies were evaluated according to litterature (Evans J. et al., Cell, 1974; Vol 3., p.153-158, Feizi T., Menger E., Transfusion, 1970, Vol. 10, p.33-35,).
(§1) 0.15 ml of compound 11 was administered intravenously to 6 female mice of the C57B1/6 line (weight 18-22 g) in doses of 45.5, 91 and 136.5 μg of compound 11 per capita for each testing group according to the dose. Simultaneously, a suspension of 5·10^7 sheep erytrocytes was injected intraperitoneally (0.2 ml per capita). Mice in the control group were injected intravenously with an equal volume of saline. The effects of compound 11 on humoral immune response was analysed both by counting the quantity of AFC in the spleen according to Cunningham (per 10^6 spleen cells and per spleen) and estimating the titers of hemagglutining antibodies in serum of the animals.
as §1, with “12” for “11”, “erythrocytes” for “erytrocytes”, “analyzed” for “analysed”
as §1, with “compound 8” for “compound 11”, “sheep erythrocytes” for “sheep erytrocytes”, “Mice of” for “Mice in”, “response were analyzed” for “response was analysed”
0.15 ml of compound 3 was administered intravenously to 6 female mice of the C57B1/6 line (weight 18-22 g) in doses of 45.5, 91 and 136.5 μg of compound 3 per capita for each testing group according to the dose. Simultaneously, a suspension of 5·10^7 sheep erytrocytes was injected intraperitoneally (0.2 ml per capita). Mice of the control group were injected intravenously with equal volume of saline.

Row | SMILES | Immunogenic activity (45.5 μg/mouse) | Amount of antibody-forming cells per 10^6 spleen cells (45.5 μg/mouse, i.v.) | Amount of antibody-forming cells per spleen (45.5 μg/mouse, i.v.) | Effect on relative amount of AFC (per 10^6 spleen cells) (45.5 μg/mouse, i.v.) | Effect on total AFC amount (per spleen) (45.5 μg/mouse, i.v.) | Effect on hemagglutinin titers (45.5 μg/mouse, i.v.) | Spleen index (45.5 μg/mouse, i.v.) | immunostimulating effect in vivo in micelle form (91 μg/mouse) | Amount of antibody-forming cells per 10^6 spleen cells (91 μg/mouse, i.v.) | Amount of antibody-forming cells per spleen (91 μg/mouse, i.v.) | Effect on hemagglutinin titers (91 μg/mouse, i.v.) | Spleen index (91 μg/mouse, i.v.) | Amount of antibody-forming cells per 10^6 spleen cells (136.5 μg/mouse, i.v.) | Amount of antibody-forming cells per spleen (136.5 μg/mouse, i.v.) | immunostimulating action (91 and 136.5 μg/mouse) | Spleen index (136.5 μg/mouse, i.v.) | further results
1 | CC1=C(/C=C/C(C)=C/C=C/C(C)=C/C(=O)N[C@@H](Cc2ccc(OP(=O)(O)O)cc2)C(=O)O)C(C)(C)CCC1 (stereo in doubt) [Compound 4, N-(all-trans-Retinoyl)-O-phospho-L-tyrosine] | no immunogenic activity | 405.0±47.9 cells per 10^6 spleen cells | 55.0±6.7 × 10^3 | −0.3 p >0.05% | −8.9 p > 0.05% | −3.2 p > 0.05% | 6.6 ± 0.5 10^−3 | display immunostimulating effect in vivo | 692.9±44.8 cells per 10^6 spleen cells | 87.6±4.3 × 10^3 | +4.8 p > 0.05% | 6.3 ± 0.4 10^−3 | 1354.3±99.9 cells per 10^6 spleen cells | 138.9±10.0 × 10^3 | high immunostimulating action | – | –
2 | CC1=C(/C=C/C(C)=C/C=C/C(C)=C\C(=O)NCCOP(=O)(O)O)C(C)(C)CCC1 [Compound 1a, N-(13cis-Retinoyl)-O-phospho-2-aminoethanol] | no immunogenic activity | 815.8±70.9 cells per 10^6 spleen cells | 104.6±10.7 × 10^3 | +5.6 p > 0.05% | +16.4 p > 0.05% | −1,3 p > 0.05% | 6.1 ± 0.2 10^−3 | display immunostimulating effect in vivo | 997.2±43.4 cells per 10^6 spleen cells | 114.5±8.2 × 10^3 | −1,3 p > 0.05% | 6.2 ± 0.2 10^−3 | 1176.9±58.5 cells per 10^6 spleen cells | 149.4±9.4 × 10^3 | marked immunostimulating action | 6.9 ± 0.3 10^−3 | Effect on hemagglutinin titers (136.5 μg/mouse, i.v.): +6,5 p > 0.05%
3 | CC/C=C\C/C=C\C/C=C\C/C=C\C/C=C\C/C=C\CCC(=O)N[C@H](C(=O)O)[C@@H](C)OP(=O)(O)O [Compound 11, N-(cis-4,7,10,13,16,19-docosahexaenoyl)-O-phospho-L-threonine] | – | 676.8±77.1 cells per 10^6 spleen cells | 85.9±8.3 × 10^3 | −15.3 p > 0.05% | −15.0 p > 0.05% | 0% | 6.2 ± 0.2 10^−3 | – | 896.8±111.8 cells per 10^6 spleen cells | 111.2±11.8 × 10^3 | −3.6 p > 0.05% | 6.9 ± 0.5 10^−3 | 1336.5±59.0 cells per 10^6 spleen cells | 182.5±7.8 × 10^3 | – | 7.5 ± 0.4 10^−3 | Effect on relative amount of AFC (per 10^6 spleen cells) (91 μg/mouse, i.v.): +12.2 p > 0.05%; Effect on total AFC amount (per spleen) (91 μg/mouse, i.v.): +10.0 p > 0.05%; immunostimulating action (136.5 μg/mouse): marked immunostimulating action; Amount of hemagglutinins (136.5 μg/mouse, i.v., serum): 9.3±0.2 Log2 T; Immunogenic activity (45.5 and 91 μg/mouse): no immunogenic activity
